This passage reports Activity results from ChEMBL document CHEMBL4334438, “Discovery of novel glycogen synthase kinase-3α inhibitors: Structure-based virtual screening, preliminary SAR and biological evaluation for treatment of acute myeloid leukemia” (Eur J Med Chem, 2019).

The target in assay [1] is CDK7/Cyclin H/MNAT1 (Homo sapiens) (UniProt P51946+P50613+P51948). Kind of assay: Inhibition of recombinant full length human CDK7/cyclinH/MAT1 assessed as residual activity at 1 uM using peptide as substrate incubated for 40 mins in presence of [gamma-33ATP] by scintillation counting based radiometry assay relative to control. The class given is protein-complex assay.

The subject of assay [2] is Serine/threonine-protein kinase Chk2 (Homo sapiens), O96017 [R145W]. Kind of assay: Inhibition of recombinant human CHK2 R145W mutant (5 to end residues) assessed as residual activity at 1 uM using KKKVSRSGLYRSPSMPENLNRPR as substrate incubated for 40 mins in presence of [gamma-33ATP] by scintillation counting based radiometry assay relative to control.
Assay [3] concerns the target Vascular endothelial growth factor receptor 1 (Homo sapiens) (UniProt P17948). Kind of assay: Inhibition of recombinant human FLT1 (783 to end residues) assessed as residual activity at 1 uM using KKKSPGEYVNIEFG as substrate at 40 mins in presence of [gamma-33ATP] by scintillation counting based radiometry assay relative to control.
Assay [4] deals with G protein-coupled receptor kinase 5 (Homo sapiens) (UniProt P34947). As to the kind of experiment: Inhibition of recombinant full length human GRK5 assessed as residual activity at 1 uM using casein as substrate at 40 mins in presence of [gamma-33ATP] by scintillation counting based radiometry assay relative to control.
The target in assay [5] is Serine/threonine-protein kinase haspin (Homo sapiens) (UniProt Q8TF76). Kind of assay: Inhibition of human Haspin (471 to end residues ) assessed as residual activity at 1 uM using RARTLSFAEPG as substrate after 40 mins by [gamma-33ATP] radiometric assay relative to control.
The target of assay [6] is Insulin receptor (Homo sapiens) (UniProt P06213). Kind of assay: Inhibition of human activated IR (1005 to 1310 residues) assessed as residual activity at 1 uM using KKKSPGEYVNIEFG as substrate after 40 mins by [gamma-33ATP] radiometric assay relative to control.
Sequence of Insulin receptor (Homo sapiens) (P06213 28-758 limits assumed): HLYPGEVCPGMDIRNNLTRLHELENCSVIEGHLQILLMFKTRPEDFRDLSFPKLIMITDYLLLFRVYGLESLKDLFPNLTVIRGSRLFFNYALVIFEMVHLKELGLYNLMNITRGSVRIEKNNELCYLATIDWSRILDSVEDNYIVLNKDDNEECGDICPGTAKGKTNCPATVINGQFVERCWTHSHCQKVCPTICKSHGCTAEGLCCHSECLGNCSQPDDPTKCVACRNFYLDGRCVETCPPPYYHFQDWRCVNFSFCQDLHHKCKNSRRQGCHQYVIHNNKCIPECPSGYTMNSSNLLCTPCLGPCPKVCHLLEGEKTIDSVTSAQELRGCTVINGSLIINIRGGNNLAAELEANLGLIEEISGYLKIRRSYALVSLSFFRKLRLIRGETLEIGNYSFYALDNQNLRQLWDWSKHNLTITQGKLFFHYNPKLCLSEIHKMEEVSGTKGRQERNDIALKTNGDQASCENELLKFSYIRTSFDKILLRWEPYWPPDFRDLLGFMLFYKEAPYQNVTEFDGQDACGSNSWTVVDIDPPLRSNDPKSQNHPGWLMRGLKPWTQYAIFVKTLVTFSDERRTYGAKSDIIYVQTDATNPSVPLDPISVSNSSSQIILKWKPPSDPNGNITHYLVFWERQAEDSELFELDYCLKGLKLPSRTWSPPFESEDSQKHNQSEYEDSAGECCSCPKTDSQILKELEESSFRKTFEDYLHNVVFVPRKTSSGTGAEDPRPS
Sequence of Insulin receptor (Homo sapiens) (P06213 763-1382 limits assumed): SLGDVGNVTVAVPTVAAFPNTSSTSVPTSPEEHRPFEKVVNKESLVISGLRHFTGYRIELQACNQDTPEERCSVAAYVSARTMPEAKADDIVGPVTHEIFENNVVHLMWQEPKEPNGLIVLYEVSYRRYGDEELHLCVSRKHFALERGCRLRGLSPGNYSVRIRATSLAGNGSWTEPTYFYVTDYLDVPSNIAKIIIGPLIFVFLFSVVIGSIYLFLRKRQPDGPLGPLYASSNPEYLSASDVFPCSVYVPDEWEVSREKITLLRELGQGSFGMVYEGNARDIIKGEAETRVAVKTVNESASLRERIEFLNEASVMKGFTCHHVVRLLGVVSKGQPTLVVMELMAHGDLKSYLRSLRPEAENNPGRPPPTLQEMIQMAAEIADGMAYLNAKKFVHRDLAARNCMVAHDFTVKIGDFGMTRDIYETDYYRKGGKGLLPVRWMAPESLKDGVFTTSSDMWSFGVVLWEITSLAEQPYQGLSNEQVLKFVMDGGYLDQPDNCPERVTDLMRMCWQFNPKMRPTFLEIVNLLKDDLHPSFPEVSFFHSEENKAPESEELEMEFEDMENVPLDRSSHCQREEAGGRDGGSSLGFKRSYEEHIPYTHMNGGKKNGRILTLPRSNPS
Assay [7] addresses Tyrosine-protein kinase JAK2 (Homo sapiens) (UniProt O60674). As to the kind of experiment: Inhibition of human JAK2 (808 to end residues) assessed as residual activity at 1 uM using KTFCGTPEYLAPEVRREPRILSEEEQEMFRDFDYIADWC as substrate after 40 mins by [gamma-33ATP] radiometric assay relative to control.
Assay [8] concerns the target Tyrosine-protein kinase Lyn (Homo sapiens) (UniProt P07948). As to the kind of experiment: Inhibition of recombinant human Lyn assessed as residual activity at 1 uM using poly(Glu, Tyr) 4:1 as substrate after 40 mins in presence of [gamma-33ATP] by scintillation counting based radiometry assay relative to control.
Assay [9] has as its target Serine/threonine-protein kinase MAK (Homo sapiens) (UniProt P20794). Kind of assay: Inhibition of recombinant human MAK assessed as residual activity at 1 uM using RRRFRPASPLRGPPK as substrate after 120 mins in presence of [gamma-33ATP] by scintillation counting based radiometry assay relative to control.
For a further assay, the species on record is Homo sapiens. As to the kind of experiment: Inhibition of recombinant human MAPKAPK2 A399G mutant (46 to end residues) assessed as residual activity at 1 uM using KKLNRTLSVA as substrate incubated for 40 mins in presence of [gamma-33ATP by scintillation counting based radiometry assay relative to control.
The target in assay [10] is Maternal embryonic leucine zipper kinase (Homo sapiens) (UniProt Q14680). Kind of assay: Inhibition of recombinant human MELK (1 to 340 residues) assessed as residual activity at 1 uM using KKLNRTLSFAEPG as substrate incubated for 40 mins in presence of [gamma-33ATP by scintillation counting based radiometry assay relative to control.
In assay [11] the target is Serine/threonine-protein kinase MARK2 (Homo sapiens) (UniProt Q7KZI7). Kind of assay: Inhibition of recombinant full-length human PAR1Balpha assessed as residual activity at 1 uM using KKKVSRSGLYRSPSMPENLNRPR as substrate measured after 40 mins in presence of [gamma33P]ATP by scintillation counting method relative to control.
For assay [12], the target named is Eukaryotic translation initiation factor 2-alpha kinase 3 (Homo sapiens) (UniProt Q9NZJ5). Kind of assay: Inhibition of human PEK (536 to end residues) assessed as residual activity at 1 uM using RSRSRSRSRSRSRSR as substrate measured after 40 mins in presence of [gamma33P]ATP by scintillation counting method relative to control.
Sequence of Eukaryotic translation initiation factor 2-alpha kinase 3 (Homo sapiens) (Q9NZJ5 whole entry): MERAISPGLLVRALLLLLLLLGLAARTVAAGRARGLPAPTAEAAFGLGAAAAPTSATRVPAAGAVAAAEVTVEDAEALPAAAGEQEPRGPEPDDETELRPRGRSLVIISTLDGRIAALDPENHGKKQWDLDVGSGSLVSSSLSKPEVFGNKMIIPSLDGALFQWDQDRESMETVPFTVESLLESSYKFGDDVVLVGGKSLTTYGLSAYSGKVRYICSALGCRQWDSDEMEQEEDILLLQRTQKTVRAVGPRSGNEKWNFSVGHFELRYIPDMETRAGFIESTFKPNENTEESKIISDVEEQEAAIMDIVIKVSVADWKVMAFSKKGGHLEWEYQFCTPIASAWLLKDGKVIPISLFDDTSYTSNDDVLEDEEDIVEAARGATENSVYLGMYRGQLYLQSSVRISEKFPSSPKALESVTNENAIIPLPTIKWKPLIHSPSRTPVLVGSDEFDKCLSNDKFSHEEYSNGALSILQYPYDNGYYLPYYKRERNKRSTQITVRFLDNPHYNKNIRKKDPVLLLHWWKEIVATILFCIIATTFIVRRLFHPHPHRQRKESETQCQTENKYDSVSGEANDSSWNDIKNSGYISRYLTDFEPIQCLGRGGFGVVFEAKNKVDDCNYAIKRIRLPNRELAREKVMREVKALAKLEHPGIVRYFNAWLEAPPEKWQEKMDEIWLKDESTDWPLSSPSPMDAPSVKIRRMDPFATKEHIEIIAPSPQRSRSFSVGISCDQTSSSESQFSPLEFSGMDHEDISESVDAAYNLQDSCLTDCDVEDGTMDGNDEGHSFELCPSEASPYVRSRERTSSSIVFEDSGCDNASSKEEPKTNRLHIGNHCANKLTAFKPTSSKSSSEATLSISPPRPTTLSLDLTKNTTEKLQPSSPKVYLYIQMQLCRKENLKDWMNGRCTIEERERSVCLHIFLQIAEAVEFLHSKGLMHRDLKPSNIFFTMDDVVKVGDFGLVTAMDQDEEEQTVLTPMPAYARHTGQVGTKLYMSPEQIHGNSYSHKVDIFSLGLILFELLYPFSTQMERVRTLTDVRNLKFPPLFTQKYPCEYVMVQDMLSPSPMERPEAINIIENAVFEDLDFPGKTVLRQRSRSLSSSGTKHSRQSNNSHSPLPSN
Assay [13] relates to Protein kinase C eta type (Homo sapiens), P24723 [UNDEFINED MUTATION]. Kind of assay: Inhibition of recombinant human PKCeta V108L/G109R/L392Q mutant (2 to end residues) assessed as residual activity at 1 uM using ERMRPRKRQGSVRRRV as substrate incubated for 40 mins in presence of [gamma33P]ATP by scintillation counting based radiometry assay relative to control.
Assay [14] has as its target Serine/threonine-protein kinase D2 (Homo sapiens) (UniProt Q9BZL6). Kind of assay: Inhibition of recombinant full-length human PKD2 assessed as residual activity at 1 uM using KKLNRTLSVA as substrate measured after 40 mins in presence of [gamma33P]ATP by scintillation counting method relative to control.
In assay [15] the target is Serine/threonine-protein kinase D3 (Homo sapiens) (UniProt O94806). Kind of assay: Inhibition of recombinant full-length human PKD3 assessed as residual activity at 1 uM using KKLRRTLSVA as substrate measured after 40 mins in presence of [gamma33P]ATP by scintillation counting method relative to control.
Sequence of Serine/threonine-protein kinase D3 (Homo sapiens) (O94806 whole entry): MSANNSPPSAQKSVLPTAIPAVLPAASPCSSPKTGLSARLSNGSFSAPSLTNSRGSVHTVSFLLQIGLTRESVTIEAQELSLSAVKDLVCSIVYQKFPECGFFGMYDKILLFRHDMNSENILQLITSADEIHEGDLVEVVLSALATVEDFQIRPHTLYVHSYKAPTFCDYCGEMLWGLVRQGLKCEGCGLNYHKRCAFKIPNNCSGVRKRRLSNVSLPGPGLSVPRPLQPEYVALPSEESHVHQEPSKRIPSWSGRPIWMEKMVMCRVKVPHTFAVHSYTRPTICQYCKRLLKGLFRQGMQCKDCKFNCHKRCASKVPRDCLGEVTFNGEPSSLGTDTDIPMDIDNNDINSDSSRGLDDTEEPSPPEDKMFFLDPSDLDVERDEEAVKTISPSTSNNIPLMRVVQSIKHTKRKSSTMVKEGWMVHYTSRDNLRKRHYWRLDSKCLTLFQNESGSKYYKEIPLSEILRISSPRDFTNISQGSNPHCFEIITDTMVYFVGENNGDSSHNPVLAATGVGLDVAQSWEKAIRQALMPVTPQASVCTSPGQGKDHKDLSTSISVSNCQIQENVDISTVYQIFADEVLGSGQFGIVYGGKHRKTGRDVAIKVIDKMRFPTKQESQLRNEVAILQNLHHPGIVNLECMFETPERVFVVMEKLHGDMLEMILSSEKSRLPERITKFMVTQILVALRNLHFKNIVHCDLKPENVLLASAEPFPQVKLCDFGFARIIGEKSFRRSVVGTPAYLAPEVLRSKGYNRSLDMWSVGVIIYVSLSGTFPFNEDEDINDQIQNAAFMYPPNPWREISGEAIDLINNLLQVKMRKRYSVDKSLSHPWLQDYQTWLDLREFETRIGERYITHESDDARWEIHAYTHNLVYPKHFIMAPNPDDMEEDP
Assay [16] deals with Ribosomal protein S6 kinase alpha-2 (Homo sapiens) (UniProt Q15349). As to the kind of experiment: Inhibition of recombinant full length human Rsk3 assessed as residual activity at 1 uM using KKKNRTLSVA as substrate measured after 40 mins in presence of [gamma33P]ATP by scintillation counting method relative to control.
Assay [17] deals with Serine/threonine-protein kinase SBK1 (Homo sapiens) (UniProt Q52WX2). As to the kind of experiment: Inhibition of recombinant full-length human SBK1 assessed as residual activity at 1 uM using KKLRRTLSVA as substrate measured after 120 mins in presence of [gamma33P]ATP by scintillation counting method relative to control.
For assay [18], the target named is SRSF protein kinase 1 (Homo sapiens) (UniProt Q96SB4). Kind of assay: Inhibition of human SRPK1 (2 to end residues) assessed as residual activity at 1 uM using RSRSRSRSRSRSRSR as substrate measured after 40 mins in presence of [gamma33P]ATP by scintillation counting method relative to control.
Assay [19] addresses Serine/threonine-protein kinase VRK1 (Homo sapiens) (UniProt Q99986). Kind of assay: Inhibition of human VRK1 assessed as residual activity at 1 uM by radiometric method relative to control.
The target in assay [20] is Serine/threonine-protein kinase WNK1 (Homo sapiens) (UniProt Q9H4A3). As to the kind of experiment: Inhibition of human WNK1 (1 to 491 residues) assessed as residual activity at 1 uM using myelin basic protein as substrate measured after 120 mins in presence of [gamma33P]ATP by scintillation counting method relative to control.

Sequence of Serine/threonine-protein kinase Chk2 (Homo sapiens), O96017 [R145W] (O96017 whole entry R145W): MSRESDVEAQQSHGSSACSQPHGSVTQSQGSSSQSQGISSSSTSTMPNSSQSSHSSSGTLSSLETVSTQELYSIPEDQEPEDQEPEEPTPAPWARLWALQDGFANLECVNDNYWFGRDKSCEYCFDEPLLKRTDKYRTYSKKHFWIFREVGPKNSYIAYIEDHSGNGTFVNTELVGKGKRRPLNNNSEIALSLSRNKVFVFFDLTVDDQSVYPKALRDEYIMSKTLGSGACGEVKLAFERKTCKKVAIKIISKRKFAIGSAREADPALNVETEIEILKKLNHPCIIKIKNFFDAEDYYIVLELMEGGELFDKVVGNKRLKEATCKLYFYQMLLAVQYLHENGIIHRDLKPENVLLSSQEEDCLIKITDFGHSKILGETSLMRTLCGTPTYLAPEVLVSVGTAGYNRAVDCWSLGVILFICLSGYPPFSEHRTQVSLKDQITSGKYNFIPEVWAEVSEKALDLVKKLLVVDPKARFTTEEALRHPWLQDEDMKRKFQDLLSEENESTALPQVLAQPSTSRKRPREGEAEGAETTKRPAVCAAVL
Sequence of Tyrosine-protein kinase JAK2 (Homo sapiens) (O60674 whole entry): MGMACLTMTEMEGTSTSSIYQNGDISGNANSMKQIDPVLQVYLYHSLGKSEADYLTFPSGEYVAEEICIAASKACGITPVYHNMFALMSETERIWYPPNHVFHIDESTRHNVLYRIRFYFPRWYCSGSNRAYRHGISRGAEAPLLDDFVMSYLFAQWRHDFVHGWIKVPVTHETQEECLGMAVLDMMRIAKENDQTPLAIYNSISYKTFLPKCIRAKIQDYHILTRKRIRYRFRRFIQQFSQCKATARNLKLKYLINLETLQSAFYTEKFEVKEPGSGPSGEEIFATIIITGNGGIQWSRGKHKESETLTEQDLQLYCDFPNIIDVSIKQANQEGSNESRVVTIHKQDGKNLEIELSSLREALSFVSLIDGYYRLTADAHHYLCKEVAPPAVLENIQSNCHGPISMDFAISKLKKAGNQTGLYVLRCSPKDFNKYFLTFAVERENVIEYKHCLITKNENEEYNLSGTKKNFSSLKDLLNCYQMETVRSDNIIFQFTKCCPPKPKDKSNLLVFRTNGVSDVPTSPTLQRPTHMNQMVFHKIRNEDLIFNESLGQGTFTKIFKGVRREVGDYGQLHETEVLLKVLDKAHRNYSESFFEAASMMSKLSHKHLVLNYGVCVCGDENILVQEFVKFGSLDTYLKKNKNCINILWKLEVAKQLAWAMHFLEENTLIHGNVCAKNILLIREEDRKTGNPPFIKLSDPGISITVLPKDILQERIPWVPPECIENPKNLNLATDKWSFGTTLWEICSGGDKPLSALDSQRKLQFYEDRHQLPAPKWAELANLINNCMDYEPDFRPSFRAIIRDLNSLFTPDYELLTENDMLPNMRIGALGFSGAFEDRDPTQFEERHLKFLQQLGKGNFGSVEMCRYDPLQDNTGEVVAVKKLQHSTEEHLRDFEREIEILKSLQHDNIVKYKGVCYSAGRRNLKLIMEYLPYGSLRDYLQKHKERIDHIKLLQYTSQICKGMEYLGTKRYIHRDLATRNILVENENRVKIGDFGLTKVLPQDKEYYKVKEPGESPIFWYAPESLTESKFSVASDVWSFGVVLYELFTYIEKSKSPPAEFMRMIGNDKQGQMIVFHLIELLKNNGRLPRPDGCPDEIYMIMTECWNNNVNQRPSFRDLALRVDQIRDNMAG

In the case of `C=CCOC(=O)c1cc(-c2ccc(/C=C3/NC(=S)NC3=O)o2)ccc1Cl`, the Activity in [1] was found to be 94%; in [2] it was 91%; in assay [3], 96%; in assay [4], 79%; in assay [5], 87%; in [6] it was 106%. In addition, the Activity in assay [7] worked out at 108%; in [8] it was 92%; in [9] it was 37%; in the assay listed under Homo sapiens, 106%; in [10] it was 105%; in assay [11], 95%. For the same molecule, the Activity was 95% in assay [12]; 99% in assay [13]; 99% in assay [14]; 94% in assay [15]; 112% in assay [16]; 112% in assay [17]. The Activity in assay [18] was 104%; in [19] it was 99%; in assay [20], 94%.

As to `N=C1NC(=O)/C(=C\c2ccc(-c3cccc([N+](=O)[O-])c3)o2)S1`, the Activity amounted to 92% in assay [1]; 99% in assay [2]; 97% in assay [3]; 100% in [4]; 59% in assay [5]; 103% in assay [6]. Also, the Activity in [7] was 102%; in assay [8] it was 83%; in assay [9] it was 17%; in the assay filed under Homo sapiens, 103%; in assay [10], 89%; in assay [11], 105%. For the same molecule, the Activity came to 99% in assay [12]; 101% in [13]; 103% in assay [14]; 89% in assay [15]; 96% in assay [16]; 98% in assay [17]. For the same molecule, the results for the Activity in [18], in [19] and in assay [20] were 94%, 92% and 97%, respectively.
